Data: PubChem BioAssay (NCI)
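Following 48 hours of exposure in 96-well plates, responses at five concentrations were used to interpolate endpoints linearly. GI50 is the concentration that inhibits growth by half. At the TGI there is no net growth.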

Legend:
Test in all cases: DTP human tumour cell line panel, 48 h
COLO 205 colon = test system: COLO 205 colon
DLD-1 colon = test system: DLD-1 colon
HCT-15 colon = test system: HCT-15 colon
HOP-18 NSCLC = test system: HOP-18 NSCLC
HT29 colon = test system: HT29 colon
NCI-H226 lung = test system: NCI-H226 lung
NCI-H460 lung = test system: NCI-H460 lung
TK-10 renal = test system: TK-10 renal
DMS 114 small cell lung = test system: DMS 114 small cell lung
HS 578T breast = test system: HS 578T breast

| Compound | TGI (COLO 205 colon) | TGI (DLD-1 colon) | TGI (HCT-15 colon) | TGI (HOP-18 NSCLC) | TGI (HT29 colon) | TGI (NCI-H226 lung) | TGI (NCI-H460 lung) | TGI (TK-10 renal) | TGI (DMS 114 small cell lung) | GI50 (COLO 205 colon) | GI50 (HCT-15 colon) | GI50 (HOP-18 NSCLC) | GI50 (HT29 colon) | GI50 (NCI-H226 lung) | GI50 (NCI-H460 lung) | GI50 (TK-10 renal) | GI50 (DMS 114 small cell lung) | GI50 (HS 578T breast) | TGI (HS 578T breast) |
| --- | --- | --- | --- | --- | --- | --- | --- | --- | --- | --- | --- | --- | --- | --- | --- | --- | --- | --- | --- |
| Nc1ccc(C(=O)CC2(O)C(=O)Nc3c(Cl)cc(Cl)cc32)cc1 (centres undefined) | > 100 µM | > 100 µM | > 100 µM | > 100 µM | > 100 µM | > 100 µM | > 100 µM | > 100 µM | – | – | – | – | – | – | – | – | – | – | – |
| COc1ccc(N2C(=O)C3c4[nH]c5ccccc5c4C4CCCCCCC4C3C2=O)cc1 (centres undefined) | > 48.6 µM | > 43.4 µM | 27 µM | 3.2 µM | > 100 µM | 31.6 µM | 27.5 µM | 40.4 µM | 28 µM | – | – | – | – | – | – | – | – | – | – |
| CCOC(=O)c1c(-c2ccccc2)c(C(OC(c2ccccc2)c2c(-c3ccccc3)c(C(=O)OCC)n3ccccc23)c2ccccc2)c2ccccn12 (centres undefined) | > 100 µM | > 100 µM | > 100 µM | > 100 µM | > 100 µM | > 100 µM | > 100 µM | > 100 µM | – | – | – | – | – | – | – | – | – | – | – |
| COc1cc(C2c3cc4c(cc3[C@@H](N(C)C)[C@H]3COC(=O)C23)OCO4)cc(OC)c1O (some centres undefined) | > 100 µM | > 100 µM | > 100 µM | – | > 100 µM | > 100 µM | > 100 µM | > 100 µM | – | – | – | – | – | – | – | – | – | – | – |
| COc1ccccc1NC(=O)C1=C(C)NC(C)=C(C(=O)Nc2ccccc2OC)C1c1ccc(N(C)C)cc1 | 92.1 µM | 55.1 µM | – | – | > 100 µM | 51.3 µM | > 100 µM | > 100 µM | 65.6 µM | – | – | – | – | – | – | – | – | – | – |
| COC(=O)C1Cc2c([nH]c3ccccc23)C(c2ccccc2O)N1Cc1ccccc1 (centres undefined) | > 46.4 µM | > 100 µM | > 46.4 µM | > 46.4 µM | > 46.4 µM | > 46.4 µM | > 46.4 µM | > 46.4 µM | > 31.6 µM | – | – | – | – | – | – | – | – | – | – |
| CC1=NOC(=O)C1N=Nc1ccc(Br)c(C)c1 (centres undefined) | 52.9 µM | 63.1 µM | 41.6 µM | 19.8 µM | > 100 µM | 53.4 µM | 58.6 µM | 33.2 µM | 29.3 µM | – | – | – | – | – | – | – | – | – | – |
| CN1C(=O)C2C=CC1C1CCC2N(C)C1=O (centres undefined) | > 100 µM | > 100 µM | > 100 µM | > 100 µM | > 100 µM | > 100 µM | – | > 100 µM | > 100 µM | – | – | – | – | – | – | – | – | – | – |
| COC(=O)[C@]1(C)C(OC)=CC(=O)C2C1[C@H]1CCC[C@@H]21 (some centres undefined) | > 100 µM | > 100 µM | > 100 µM | > 100 µM | > 100 µM | > 100 µM | > 100 µM | > 100 µM | > 100 µM | – | – | – | – | – | – | – | – | – | – |
| COC(=O)C(CC(=O)c1c[nH]c2ccccc12)c1c[nH]c2ccccc12 (centres undefined) | – | > 100 µM | 36.3 µM | – | 31.2 µM | 54.3 µM | 37.9 µM | 76.9 µM | 39.4 µM | – | – | – | – | – | – | – | – | – | – |
| CCC[CH2][Sn]1([CH2]CCC)[O]C(=O)c2ccc(N)cc2[O]1 | 1.98 µM | – | 2.21 µM | 2.18 µM | 2.73 µM | 2.64 µM | 4.21 µM | 1.69 µM | – | 0.594 µM | 0.46 µM | 0.997 µM | 1.33 µM | 0.857 µM | 1.73 µM | 0.528 µM | – | – | – |
| COc1cc(C2c3cc4c(cc3[C@@H](OCCN(C)C)C3COC(=O)[C@H]23)OCO4)cc(OC)c1O (some centres undefined) | 16 µM | 5.93 µM | 3.12 µM | 4.36 µM | 2.43 µM | 0.288 µM | 0.441 µM | 5.49 µM | – | – | – | – | – | – | – | – | – | – | – |
| O=c1cc(-c2ccccn2)[nH]c2cc(F)ccc12 | > 100 µM | > 100 µM | – | > 100 µM | > 100 µM | > 100 µM | > 100 µM | > 100 µM | > 100 µM | – | – | – | – | – | – | – | 52.4 µM | – | – |
| COc1ccc(/C=C\c2cc(OC)c(OC)c(OC)c2)c(NS(=O)(=O)c2ccc(Cl)cc2)c1O | 5.76 µM | – | > 100 µM | – | 11.9 µM | 90.4 µM | 14.4 µM | 27.7 µM | – | 1.74 µM | 0.053 µM | – | 2.76 µM | 24.9 µM | 0.316 µM | 0.998 µM | – | 0.292 µM | 37 µM |
| CCOC(=O)Nc1nc2cc(OCC)ccc2s1 | > 100 µM | – | > 100 µM | – | > 100 µM | > 100 µM | > 100 µM | > 100 µM | – | 7.84 µM | 4.8 µM | – | 4.26 µM | > 100 µM | 8.02 µM | > 72.9 µM | – | 50 µM | > 100 µM |
| CCCCN(CCCC)CCc1c(C)cc(C)c(CCN(CCCC)CCCC)c1O | 4.14 µM | – | 13 µM | – | 13 µM | 37.8 µM | 9.59 µM | > 100 µM | – | 1.96 µM | 3.06 µM | – | 2.52 µM | 3.16 µM | 2.91 µM | 3.03 µM | – | 2.7 µM | 8.59 µM |
| CCCCCCNC(=O)Oc1ccc(/C(=C(/C)Cc2ccc(OC)cc2)c2ccc(OCCN(C)C)cc2)cc1 | 9.79 µM | – | 6.6 µM | – | 4.58 µM | 11.9 µM | 8.93 µM | 9.02 µM | – | 4.71 µM | 2.02 µM | – | 1.2 µM | 6.18 µM | 4.22 µM | 4.52 µM | – | 5.87 µM | 12.3 µM |
| COc1ccc(NC(=O)n2nc(/C=C\c3ccc(O)c(OC)c3)cc2/C=C\c2ccc(O)c(OC)c2)cc1 | 44.3 µM | – | > 100 µM | – | 11 µM | 78.6 µM | 31.4 µM | 95.3 µM | – | 16.2 µM | 2.98 µM | – | 3.52 µM | 10.7 µM | 4.24 µM | 10.2 µM | – | 6.77 µM | 61.9 µM |
| C[C@]12CC[C@@H](OC(=O)N(CCCl)N=O)C[C@@H]1CC[C@@H]1[C@@H]2CC[C@]2(C)C(=O)CC[C@@H]12 | 3.88 µM | – | 32.4 µM | – | 15.9 µM | 31.4 µM | 1.75 µM | 33.1 µM | – | 1.6 µM | 12.1 µM | – | 3.26 µM | 14.6 µM | 0.247 µM | 12 µM | – | 3.04 µM | 17.9 µM |
| NC(=O)c1csc(C2CCC(CO)O2)n1 (centres undefined) | > 100 µM | – | > 100 µM | > 100 µM | > 100 µM | > 100 µM | > 100 µM | > 100 µM | > 100 µM | – | – | – | – | – | – | – | – | – | – |
